Test: xn = mol fraction of the nth substance listed
Conditions: 100 kPa

CC(=O)[O-].CC[n+]1ccn(C)c1 + OCc1ccco1
x1 = 1
Conditions	speed of sound [m/s]
298.15 K	1735
303.15 K	1722
308.15 K	1710
313.15 K	1698
318.15 K	1686

OCc1ccco1 + CC(=O)[O-].CC[n+]1ccn(C)c1
speed of sound [m/s]
Conditions	298.15 K	303.15 K	308.15 K	313.15 K	318.15 K
x2 = 0	1447	1431	1413	1394	1375
x2 = 0.0572	1487	1471	1452	1430	–
x2 = 0.1058	1522	1506	1487	1465	1433
x2 = 0.1534	1548	1532	–	1490	–
x2 = 0.2087	1573	1557	1540	1519	–
x2 = 0.3068	–	–	1577	–	1534
x2 = 0.408	1637	1623	1609	1595	1578
x2 = 0.5063	–	–	1633	1620	1606
x2 = 0.5513	1670	1656	1643	1629	–
x2 = 0.6031	1680	1666	–	–	1627
x2 = 0.7053	1696	1683	–	1657	–
x2 = 0.8045	1711	–	1685	1673	1660
x2 = 0.8441	1716	1704	1691	1678	1666
x2 = 0.902	1723	–	1699	1686	1674
